Assay results taken from patent US11732000B2, “Oxysterols and methods of use thereof” (Sage Therapeutics, Inc., priority 2015, dated 2023).

target: T1, GlunN1/GluN2A glutamate receptors (Homo sapiens, UniProt Q05586+Q12879); assay: NMDA potentiation, whole-cell patch clamp of mammalian cells (IonWorks Barracuda, IWB); format: cell-based; details: 3 μM test article; HEK293 cells expressing human GRIN1/GRIN2A; co-application with EC20 L-glutamate and 30 μM glycine
T1 construct: expressed in transfected cells
T1 sequence (Q12879 23-1464, other chains not shown): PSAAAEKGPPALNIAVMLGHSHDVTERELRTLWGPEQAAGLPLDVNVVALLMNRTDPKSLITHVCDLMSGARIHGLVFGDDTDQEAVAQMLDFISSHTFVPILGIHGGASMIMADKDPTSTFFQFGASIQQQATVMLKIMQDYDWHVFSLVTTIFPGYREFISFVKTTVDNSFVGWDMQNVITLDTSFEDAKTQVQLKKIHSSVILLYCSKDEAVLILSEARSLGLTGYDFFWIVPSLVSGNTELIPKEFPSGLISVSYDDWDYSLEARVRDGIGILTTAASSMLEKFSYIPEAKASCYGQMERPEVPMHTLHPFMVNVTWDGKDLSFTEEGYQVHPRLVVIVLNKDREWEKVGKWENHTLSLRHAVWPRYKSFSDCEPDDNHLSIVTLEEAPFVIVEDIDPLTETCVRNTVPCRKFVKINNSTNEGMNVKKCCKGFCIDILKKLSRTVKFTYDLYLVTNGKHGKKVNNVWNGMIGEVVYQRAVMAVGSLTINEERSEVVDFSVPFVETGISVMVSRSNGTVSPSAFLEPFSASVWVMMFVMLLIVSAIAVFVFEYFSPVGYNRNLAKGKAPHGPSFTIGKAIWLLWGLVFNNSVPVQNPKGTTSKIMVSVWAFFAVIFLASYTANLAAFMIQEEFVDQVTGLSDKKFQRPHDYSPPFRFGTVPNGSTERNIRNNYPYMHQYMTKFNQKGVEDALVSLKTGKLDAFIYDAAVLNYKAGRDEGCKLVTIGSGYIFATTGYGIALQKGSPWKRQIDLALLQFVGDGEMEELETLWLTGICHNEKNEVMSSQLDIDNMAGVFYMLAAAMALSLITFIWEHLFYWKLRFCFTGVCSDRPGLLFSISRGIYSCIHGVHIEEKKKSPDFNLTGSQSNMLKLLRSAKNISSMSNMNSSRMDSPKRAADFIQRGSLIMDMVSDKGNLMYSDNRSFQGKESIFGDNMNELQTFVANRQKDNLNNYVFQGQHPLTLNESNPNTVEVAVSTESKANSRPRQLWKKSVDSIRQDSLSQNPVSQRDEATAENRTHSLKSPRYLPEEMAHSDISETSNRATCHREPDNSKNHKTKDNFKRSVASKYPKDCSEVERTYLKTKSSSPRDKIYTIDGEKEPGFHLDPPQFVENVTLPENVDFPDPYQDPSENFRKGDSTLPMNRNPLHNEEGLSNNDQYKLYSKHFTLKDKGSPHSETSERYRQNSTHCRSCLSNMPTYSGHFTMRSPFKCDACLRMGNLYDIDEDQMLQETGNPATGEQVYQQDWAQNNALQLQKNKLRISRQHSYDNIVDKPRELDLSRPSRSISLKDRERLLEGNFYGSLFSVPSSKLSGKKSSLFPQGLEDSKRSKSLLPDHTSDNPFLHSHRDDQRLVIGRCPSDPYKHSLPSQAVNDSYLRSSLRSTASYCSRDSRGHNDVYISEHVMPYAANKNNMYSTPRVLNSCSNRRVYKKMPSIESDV
Procedure: NMDA potentiation was assessed using either whole cell patch clamp of mammalian cells which expressed NMDA receptors.
Whole-Cell Patch Clamp of Mammalian Cells (IONWORKS BARRACUDA® (IWB))
The whole-cell patch-clamp technique was used to investigate the effects of compounds GlunN1/GluN2A glutamate receptors expressed in mammalian cells.
HEK293 cells were transformed with adenovirus 5 DNA and transfected with cDNA encoding the human GRIN1/GRIN2A genes. Stable transfectants were selected using G418 and ZEOCIN™ (phleomycins)-resistance genes incorporated into the expression plasmid and selection pressure maintained with G418 and ZEOCIN™ (phleomycins) in the medium. Cells were cultured in Dulbecco's Modified Eagle Medium/Nutrient Mixture (D-MEM/F-12) supplemented with 10% fetal bovine serum, 100 μg/ml penicillin G sodium, 100 μg/ml streptomycin sulphate, 100 μg/ml Zeocin, 5 μg/ml blasticidin and 500 μg/ml G418.
Test article effects were evaluated in 8-point concentration-response format (4 replicate wells/concentration). All test and control solutions contained 0.3% DMSO and 0.01% KOLLIPHOR® (polyethoxylated castor oil) EL (C5135, Sigma). The test article formulations were loaded in a 384-well compound plate using an automated liquid handling system (SCICLONE® ALH3000, Caliper Life Sciences). The measurements were performed using IWB platform following this procedure:
Electrophysiological Procedures:
• a) Intracellular solution (mM): 50 mM CsCl, 90 mM CsF, 2 mM MgCl2, 5 mM EGTA, 10 mM HEPES. Adjust to pH 7.2 with CsOH. • b) Extracellular solution, HB-PS (composition in mM): NaCl, 137; KCl, 1.0; CaCl2), 5; HEPES, 10; Glucose, 10; pH adjusted to 7.4 with NaOH (refrigerated until use). • c) Holding potential: −70 mV, potential during agonist/PAM application: −40 mV. Recording Procedure: • a) Extracellular buffer will be loaded into the PPC plate wells (11 μL per well). Cell suspension will be pipetted into the wells (9 μL per well) of the PPC planar electrode. • b) Whole-cell recording configuration will be established via patch perforation with membrane currents recorded by on-board patch clamp amplifiers. • c) Two recordings (scans) will be performed. First, during pre-application of test article alone (duration of pre-application −5 min) and second, during test articles and agonist (EC20 L-glutamate and 30 μM glycine) co-application to detect positive modulatory effects of the test article.
Test Article Administration: The first pre-application will consist of the addition of 20 μL of 2× concentrated test article solution and, second, of 20 μL of 1× concentrated test article and agonist at 10 μL/s (2 second total application time).

| Compound | GluN2A PCA IWB Ephys % potentiation at 3 μM |
| --- | --- |
| CC[C@]1(O)CC[C@@]2(C)C(=CC[C@H]3[C@@H]4CC[C@H]([C@H](C)CC[C@H](O)C5CC5)[C@@]4(C)CC[C@@H]32)C1 (single isomer, unassigned) [Compound 25] | C (“C” indicates potentiation of >150%) |
| CC[C@]1(O)CC[C@@]2(C)[C@@H](CC[C@@H]3[C@@H]2CC[C@]2(C)[C@@H]([C@H](C)CC[C@@H](O)C(C)C)CC[C@@H]32)C1 [Compound 15] | C (“C” indicates potentiation of >150%) |
| CC[C@]1(O)CC[C@@]2(C)C(=CC[C@H]3[C@@H]4CC[C@H]([C@H](C)CC[C@@H](O)C5CC5)[C@@]4(C)CC[C@@H]32)C1 [Compound 26] | C (“C” indicates potentiation of >150%) |
| C[C@H](CC[C@H](O)C1CC1)[C@H]1CC[C@H]2[C@@H]3CC=C4C[C@@](C)(O)CC[C@]4(C)[C@H]3CC[C@]12C [Compound 28] | C (“C” indicates potentiation of >150%) |
| C[C@H](CC[C@@H](O)C1CC1)[C@H]1CC[C@H]2[C@@H]3CC=C4C[C@@](C)(O)CC[C@]4(C)[C@H]3CC[C@]12C [Compound 29] | B (“B” indicates potentiation of >75% to 150%) |
| C[C@H](CC[C@@H](O)C1CC1)[C@H]1CC[C@H]2[C@@H]3CC[C@H]4C[C@@](C)(O)CC[C@]4(C)[C@H]3CC[C@]12C [Compound 32] | C (“C” indicates potentiation of >150%) |
| C[C@H](CC[C@H](O)C1CCC1)[C@H]1CC[C@H]2[C@@H]3CC=C4C[C@@](C)(O)CC[C@]4(C)[C@H]3CC[C@]12C [Compound 41-A] | C (“C” indicates potentiation of >150%) |
| C[C@H](CC[C@H](O)C1CCOCC1)[C@H]1CC[C@H]2[C@@H]3CC=C4C[C@@](C)(O)CC[C@]4(C)[C@H]3CC[C@]12C [Compound 44-A] | C (“C” indicates potentiation of >150%) |
| CC[C@]1(O)CC[C@@]2(C)C(=CC[C@H]3[C@@H]4CC[C@H]([C@H](C)CC[C@H](O)CC(F)(F)F)[C@@]4(C)CC[C@@H]32)C1 [Compound 53] | C (“C” indicates potentiation of >150%) |

same assay, conditions: 3 μM test article; HEK293 cells expressing human GRIN1/GRIN2A; co-application with EC20 L-glutamate and 30 μM glycine; read-out: GluN2A PCA IWB Ephys % potentiation at 3 μM

| Compound | activation at 3 µM |
| --- | --- |
| CC[C@H](O)CC[C@@H](C)[C@H]1CC[C@H]2[C@@H]3CC[C@H]4C[C@@](C)(O)CC[C@]4(C)[C@H]3CC[C@]12C [Compound 9] | 75 to 150% |
| CC[C@]1(O)CC[C@@]2(C)C(=CC[C@H]3[C@@H]4CC[C@H]([C@H](C)CC[C@H](O)C(C)C)[C@@]4(C)CC[C@@H]32)C1 [Compound 10] | > 150% |
| CC[C@]1(O)CC[C@@]2(C)C(=CC[C@H]3[C@@H]4CC[C@H]([C@H](C)CC[C@@H](O)C(C)C)[C@@]4(C)CC[C@@H]32)C1 [Compound 11] | > 150% |
| CC[C@]1(O)CC[C@@]2(C)[C@@H](CC[C@@H]3[C@@H]2CC[C@]2(C)[C@@H]([C@H](C)CC[C@H](O)C(C)C)CC[C@@H]32)C1 [Compound 13] | > 150% |
| CC(C)[C@H](O)CC[C@@H](C)[C@H]1CC[C@H]2[C@@H]3CC=C4C[C@@](C)(O)CC[C@]4(C)[C@H]3CC[C@]12C [Compound 19] | > 150% |
| CC[C@H](O)CC[C@@H](C)[C@H]1CC[C@H]2[C@@H]3CC=C4C[C@](O)(CC)CC[C@]4(C)[C@H]3CC[C@]12C [Compound 23] | > 150% |
| C[C@H](CCC(O)C1CC1)[C@H]1CC[C@H]2[C@@H]3CC[C@H]4C[C@@](C)(O)CC[C@]4(C)[C@H]3CC[C@]12C (stereo partly shown) [Compound 30] | > 150% |
| CC[C@]1(O)CC[C@@]2(C)[C@@H](CC[C@@H]3[C@@H]2CC[C@]2(C)[C@@H]([C@H](C)CCC(C)O)CC[C@@H]32)C1 (stereo partly shown) [Compound 33] | 10 to 75% |
| CCC(O)CC[C@@H](C)[C@H]1CC[C@H]2[C@@H]3CC[C@H]4C[C@](O)(CC)CC[C@]4(C)[C@H]3CC[C@]12C (stereo partly shown) [Compound 34] | > 150% |
| CC[C@@H](O)CC[C@@H](C)[C@H]1CC[C@H]2[C@@H]3CC[C@H]4C[C@](O)(CC)CC[C@]4(C)[C@H]3CC[C@]12C [Compound 35] | 75 to 150% |
| CC[C@H](O)CC[C@@H](C)[C@H]1CC[C@H]2[C@@H]3CC[C@H]4C[C@](O)(CC)CC[C@]4(C)[C@H]3CC[C@]12C [Compound 36] | > 150% |
| CC[C@]1(O)CC[C@@]2(C)[C@@H](CC[C@@H]3[C@@H]2CC[C@]2(C)[C@@H]([C@H](C)CCC(O)C4CC4)CC[C@@H]32)C1 (stereo partly shown) [Compound 38] | > 150% |
| CC[C@]1(O)CC[C@@]2(C)[C@@H](CC[C@@H]3[C@@H]2CC[C@]2(C)[C@@H]([C@H](C)CC[C@H](O)C4CC4)CC[C@@H]32)C1 [Compound 39] | 10 to 75% |
| CC[C@]1(O)CC[C@@]2(C)[C@@H](CC[C@@H]3[C@@H]2CC[C@]2(C)[C@@H]([C@H](C)CC[C@@H](O)C4CC4)CC[C@@H]32)C1 [Compound 40] | > 150% |
| C[C@H](CC[C@@H](O)C1CCC1)[C@H]1CC[C@H]2[C@@H]3CC=C4C[C@@](C)(O)CC[C@]4(C)[C@H]3CC[C@]12C [Compound 41-B] | > 150% |
| C[C@H](CCC(O)C1CCOCC1)[C@H]1CC[C@H]2[C@@H]3CC=C4C[C@@](C)(O)CC[C@]4(C)[C@H]3CC[C@]12C (stereo partly shown) [Compound 44] | > 150% |
| C[C@H](CC[C@H](O)CC(F)(F)F)[C@H]1CC[C@H]2[C@@H]3CC=C4C[C@@](C)(O)CC[C@]4(C)[C@H]3CC[C@]12C [Compound 45] | > 150% |
| C[C@H](CC[C@@H](O)CC(F)(F)F)[C@H]1CC[C@H]2[C@@H]3CC=C4C[C@@](C)(O)CC[C@]4(C)[C@H]3CC[C@]12C [Compound 46] | > 150% |
| C[C@H](CC[C@H](O)CC(F)(F)F)[C@H]1CC[C@H]2[C@@H]3CC[C@H]4C[C@@](C)(O)CC[C@]4(C)[C@H]3CC[C@]12C [Compound 47] | > 150% |
| C[C@H](CC[C@@H](O)CC(F)(F)F)[C@H]1CC[C@H]2[C@@H]3CC[C@H]4C[C@@](C)(O)CC[C@]4(C)[C@H]3CC[C@]12C [Compound 48] | > 150% |
| CC[C@]1(O)CC[C@@]2(C)C(=CC[C@H]3[C@@H]4CC[C@H]([C@H](C)CCC(O)CC(F)(F)F)[C@@]4(C)CC[C@@H]32)C1 (stereo partly shown) [Compound 52] | > 150% |
| CC[C@]1(O)CC[C@@]2(C)C(=CC[C@H]3[C@@H]4CC[C@H]([C@H](C)CC[C@@H](O)CC(F)(F)F)[C@@]4(C)CC[C@@H]32)C1 [Compound 54] | > 150% |
